From US7754692B2, “Arginyl-glutamine dipeptide for treatment of pathological vascular proliferation” (University of Florida Research Foundation, Inc., priority 2003, dated 2010) come the findings set out here.

Assay [1] concerns pre-retinal neovascularization. Nature of the assay: Neonatal mouse hyperoxia model of retinopathy of prematurity, counting pre-retinal neovascularization on stained sections. Format: in vivo, mice. How it is done: Neonatal mice were exposed to a period of hyperoxia to induce retinal angiogenesis that mimics retinopathy of prematurity. An Arginyl-glutamine dipeptide was administered intraperitoneally twice daily during the period when neovascularization occurs in this model, days 12 through 17.
On day 17 the animals are sacrificed and degree of angiogenesis was quantified by counting pre-retinal neovascularization on stained sections from treated and untreated animals.

For assay [2], the system named is vascular endothelial growth factor (VEGF). Nature of the assay: Retinal cell culture model, vascular endothelial growth factor (VEGF). It counts as cell-based.
In a further assay the test system is retinal cell culture. The assay is described as follows: Retinal cell culture model, transepithelial resistance (TER). Format: cell-based.

Peptide text beside a SMILES is read from it.

Consider `N=C(N)NCCC[C@H](N)C(=O)N[C@@H](CCC(N)=O)C(=O)O` [argininyl-glutamine, arginyl-glutamine] (H-Arg-Gln-OH), for which, in assay [1] (neonatal mice after hyperoxia, intraperitoneally twice daily days 12 through 17, read on day 17, combined data from two experiments (FIG. 1)), the “reduction in preretinal neovascularization” value is reported as 80%. Besides, the “nuclei (associated with retinopathy) compared to the vehicle” value in assay [1] (repeat experiment with different doses of the dipeptide after oxygen stress challenge, FIG. 2) is “clear decrease”. In assay [2], the “vascular endothelial growth factor (VEGF)” value was “decreased”. The “transepithelial resistance (TER)” value in the assay on retinal cell culture is “increased”.
